In ChEMBL document CHEMBL1201862, “PubChem BioAssay data set” (2004):
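Results reflect a 48-hour exposure of cells in 96-well plates to compound at five concentrations. Here, GI50 denotes the concentration required for 50% inhibition of growth.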 Calls of active or inactive are those of the source. No stated cut-off is given here; in the data, active = GI50 up to about 1.1 µM and inactive = higher.

What was measured:
Experiment in all cases: NCI anticancer screen, dose series, 48 h
UO-31 = system: UO-31
NCI/ADR-RES = system: NCI/ADR-RES
OVCAR-3 = system: OVCAR-3
RXF 393 = system: RXF 393
EKVX = system: EKVX
OVCAR-8 = system: OVCAR-8
CCRF-CEM = system: CCRF-CEM
SK-MEL-5 = system: SK-MEL-5
OVCAR-5 = system: OVCAR-5
HL-60 = system: HL-60
HT-29 = system: HT-29
COLO 205 = system: COLO 205
Hs-578T = system: Hs-578T
RPMI-8226 = system: RPMI-8226
A549 = system: A549
SF-295 = system: SF-295
NCI-H226 = system: NCI-H226
MCF7 = system: MCF7
SK-MEL-28 = system: SK-MEL-28
SN12C = system: SN12C
U-251 = system: U-251
IGROV-1 = system: IGROV-1
UACC-257 = system: UACC-257
SK-MEL-2 = system: SK-MEL-2
CAKI-1 = system: CAKI-1
A498 = system: A498
HCT-116 = system: HCT-116
LOX IMVI = system: LOX IMVI
Malme-3M = system: Malme-3M
HCT-15 = system: HCT-15
K562 = system: K562
786-0 = system: 786-0
SW-620 = system: SW-620
SF-268 = system: SF-268
DU-145 = system: DU-145
T47D = system: T47D
SK-OV-3 = system: SK-OV-3
ACHN = system: ACHN
NCI-H522 = system: NCI-H522
SNB-75 = system: SNB-75
M14 = system: M14
KM12 = system: KM12
HOP-92 = system: HOP-92
HOP-62 = system: HOP-62
TK-10 = system: TK-10
MOLT-4 = system: MOLT-4
MDA-MB-231 = system: MDA-MB-231
SNB-19 = system: SNB-19
MDA-N = system: MDA-N
UACC-62 = system: UACC-62
MDA-MB-435 = system: MDA-MB-435
NCI-H460 = system: NCI-H460
HCC 2998 = system: HCC 2998
NCI-H23 = system: NCI-H23
PC-3 = system: PC-3
SF-539 = system: SF-539
BT-549 = system: BT-549
SR = system: SR
OVCAR-4 = system: OVCAR-4

Cc1cc(-c2nc3cc(F)ccc3s2)ccc1N
GI50 (UO-31): 4.06 µM (inactive)
GI50 (NCI/ADR-RES): 75.9 µM (inactive)
GI50 (OVCAR-3): 28.7 µM (inactive)
GI50 (RXF 393): 17.2 µM (inactive)
GI50 (EKVX): 11.2 µM (inactive)
GI50 (OVCAR-8): 36.3 µM (inactive)
GI50 (CCRF-CEM): 1.95 µM (inactive)
GI50 (SK-MEL-5): 42.4 µM (inactive)
GI50 (OVCAR-5): 0.794 µM (active)
GI50 (HL-60): > 28.1 µM (inactive)
GI50 (HT-29): 29 µM (inactive)
GI50 (COLO 205): 8.69 µM (inactive)
GI50 (Hs-578T): 26.5 µM (inactive)
GI50 (RPMI-8226): > 31.3 µM (inactive)
GI50 (A549): 6.17 µM (inactive)
GI50 (SF-295): 14.8 µM (inactive)
GI50 (NCI-H226): < 0.051 µM (active)
GI50 (MCF7): < 0.01 µM (active)
GI50 (SK-MEL-28): > 100 µM (inactive)
GI50 (SN12C): 31 µM (inactive)
GI50 (U-251): 24.2 µM (inactive)
GI50 (IGROV-1): < 0.01 µM (active)
GI50 (UACC-257): 29.9 µM (inactive)
GI50 (SK-MEL-2): 34.6 µM (inactive)
GI50 (CAKI-1): 23.6 µM (inactive)
GI50 (A498): 2 µM (inactive)
GI50 (HCT-116): 21.1 µM (inactive)
GI50 (LOX IMVI): > 56.9 µM (inactive)
GI50 (Malme-3M): 40.8 µM (inactive)
GI50 (HCT-15): 7.96 µM
GI50 (K562): > 49.2 µM (inactive)
GI50 (786-0): 22.2 µM (inactive)
GI50 (SW-620): > 100 µM (inactive)
GI50 (SF-268): 20.3 µM (inactive)
GI50 (DU-145): 56 µM (inactive)
GI50 (T47D): < 0.01 µM (active)
GI50 (SK-OV-3): 88.5 µM (inactive)
GI50 (ACHN): 22.4 µM (inactive)
GI50 (NCI-H522): 16.9 µM (inactive)
GI50 (SNB-75): 20.4 µM (inactive)
GI50 (M14): 39.2 µM (inactive)
GI50 (KM12): 42.8 µM (inactive)
GI50 (HOP-92): 18.7 µM (inactive)
GI50 (HOP-62): 15.2 µM (inactive)
GI50 (TK-10): < 0.01 µM (active)
GI50 (MOLT-4): 34.2 µM (inactive)
GI50 (MDA-MB-231): 8.11 µM (inactive)
GI50 (SNB-19): 35.8 µM (inactive)
GI50 (MDA-N): > 46.1 µM (inactive)
GI50 (UACC-62): 39.7 µM (inactive)
GI50 (MDA-MB-435): > 55.6 µM (inactive)
GI50 (NCI-H460): < 0.017 µM (active)
GI50 (HCC 2998): < 0.01 µM (active)
GI50 (NCI-H23): 2.79 µM (inactive)
GI50 (PC-3): 17 µM (inactive)
GI50 (SF-539): 20.4 µM (inactive)
GI50 (BT-549): > 48 µM (inactive)
GI50 (SR): < 0.0106 µM (active)

O=c1oc2c([N+](=O)[O-])cc([N+](=O)[O-])cc2c2ccccc12
GI50 (NCI/ADR-RES): > 100 µM (inactive)
GI50 (OVCAR-3): > 100 µM (inactive)
GI50 (RXF 393): > 100 µM (inactive)
GI50 (EKVX): > 100 µM (inactive)
GI50 (OVCAR-8): > 100 µM (inactive)
GI50 (CCRF-CEM): > 100 µM (inactive)
GI50 (SK-MEL-5): > 100 µM (inactive)
GI50 (OVCAR-5): > 100 µM (inactive)
GI50 (HL-60): > 100 µM (inactive)
GI50 (HT-29): > 100 µM (inactive)
GI50 (COLO 205): > 100 µM (inactive)
GI50 (Hs-578T): > 100 µM (inactive)
GI50 (RPMI-8226): > 100 µM (inactive)
GI50 (A549): > 100 µM (inactive)
GI50 (SF-295): > 100 µM (inactive)
GI50 (NCI-H226): > 100 µM (inactive)
GI50 (OVCAR-4): > 100 µM (inactive)
GI50 (MCF7): > 100 µM (inactive)
GI50 (SK-MEL-28): > 100 µM (inactive)
GI50 (SN12C): > 100 µM (inactive)
GI50 (U-251): > 100 µM (inactive)
GI50 (IGROV-1): > 100 µM (inactive)
GI50 (UACC-257): > 100 µM (inactive)
GI50 (SK-MEL-2): > 100 µM (inactive)
GI50 (CAKI-1): > 100 µM (inactive)
GI50 (A498): > 100 µM (inactive)
GI50 (HCT-116): > 100 µM (inactive)
GI50 (LOX IMVI): > 100 µM (inactive)
GI50 (Malme-3M): > 100 µM (inactive)
GI50 (HCT-15): > 100 µM
GI50 (K562): > 100 µM (inactive)
GI50 (786-0): > 100 µM (inactive)
GI50 (SW-620): > 100 µM (inactive)
GI50 (SF-268): > 100 µM (inactive)
GI50 (DU-145): > 100 µM (inactive)
GI50 (T47D): > 100 µM (inactive)
GI50 (ACHN): > 100 µM (inactive)
GI50 (NCI-H522): > 100 µM (inactive)
GI50 (SNB-75): > 100 µM (inactive)
GI50 (M14): > 100 µM (inactive)
GI50 (HOP-92): > 100 µM (inactive)
GI50 (HOP-62): > 100 µM (inactive)
GI50 (TK-10): > 100 µM (inactive)
GI50 (MOLT-4): > 100 µM (inactive)
GI50 (MDA-MB-231): > 100 µM (inactive)
GI50 (SNB-19): > 100 µM (inactive)
GI50 (MDA-N): > 100 µM (inactive)
GI50 (UACC-62): > 100 µM (inactive)
GI50 (MDA-MB-435): > 100 µM (inactive)
GI50 (NCI-H460): > 100 µM (inactive)
GI50 (HCC 2998): > 100 µM (inactive)
GI50 (NCI-H23): > 100 µM (inactive)
GI50 (PC-3): > 100 µM (inactive)
GI50 (SF-539): > 100 µM (inactive)
GI50 (BT-549): 59.6 µM (inactive)
GI50 (SR): > 100 µM (inactive)
